Experiment [1] addresses T1, human CRTH2 (Homo sapiens (Human), UniProt Q9Y5Y4). Kind of experiment: Calcium Flux Assay Using Fluorometric Imaging Plate Reader (FLIPR). It is filed as cell-based. The conditions noted are these: CHO-K1 cells with G-alpha 16 and human CRTH2; inhibition of DK-PGD2 ligand-induced Ca2+ flux. The procedure: Calcium Flux Assay Using Fluorometric Imaging Plate Reader (FLIPR)
Cell Culture Conditions: CHO-K1 cells previously transfected with G-alpha 16 were subsequently transfected with the human CRTH2 receptor and the neomycin resistance gene. Following selection in 800 μg/mL G418 (geneticin), individual clones were assayed for their receptor expression based on staining with an anti human CRTH2 IgG, followed by assaying for their response to 13,14-dihydro-15-keto Prostaglandin D2 (DK-PDG2) (ligand) in the Ca^2+ Flux assay. Positive clones were then cloned by limiting dilution cloning. The transfected cells were cultured in Ham's F-12 medium supplemented with 10% fetal bovine serum, 2 mM glutamine, 100 U/mL penicillin/100 μg/mL streptomycin, 200 μg/mL hygromycin B, and 800 μg/mL G418 (geneticin). Cells were harvested with trypsin-EDTA (trypsin-ethylenediaminetetraacetic acid) and counted using ViaCount® reagent (from Guava Technologies, Inc. which contains two DNA-binding dyes that enable the reagent user to distinguish between viable and non-viable cells). The cell suspension volume was adjusted to 2.5×10^5 cells/mL with complete growth media. Aliquots of 50 μL were dispensed into BD Falcon™ 384 well black/clear microplates (from BD Biosciences, a division of Becton, Dickinson and Company) and the microplates were placed in a 37° C. CO2 incubator overnight. The following day, the microplates were used in the assay.
Loading Buffer containing dye (from the FLIPR® Calcium 3 Assay Kit from Molecular Devices, a division of MDS Analytical Technologies and MDS Inc.) was prepared by dissolving the contents of one bottle into 200 mL Hank's Balanced Salt Solution containing 20 mM HEPES (4-(2-hydroxyethyl)-1-piperazineethanesulfonic acid) and 2.5 mM probenecid. Growth media was removed from the cell plates and 25 μL of Hank's Balanced Salt Solution (HBSS) containing 20 mM HEPES, 0.05% BSA and 2.5 mM probenecid was added to each well followed by 25 μL of diluted dye using a Multidrop dispenser. The plates were then incubated for 1 hour at 37° C.
During the incubation, test compound plates were prepared by adding 90 μL of HBSS/20 mM HEPES/0.005% BSA buffer to the 2 μL of serial diluted compounds. To prepare serial diluted compounds, 20 mM stocks of compounds were dissolved in 100% DMSO. The compound dilution plate was set up as follows: well #1 received 5 μL of compound plus 10 μL of DMSO. Wells 2-10 received 10 μL of DMSO. 5 μL was mixed and transferred from well #1 into well #2. 1:3 serial dilutions were continued out 10 steps. 2 μL of diluted compound was transferred into duplicate wells of a 384 well “assay plate” and then 90 μL of buffer was added.
After incubation, both the cell and “assay plate” plates were brought to the fluorometric imaging plate reader (FLIPR®) and 20 μL of the diluted compounds were transferred to the cell plates by the FLIPR®. Plates were then incubated for 1 hour at room temperature. […] During the assay, fluorescence readings were taken simultaneously from all 384 wells of the cell plate every 1.5 seconds. Five readings were taken to establish a stable baseline, then 20 μL of sample was rapidly (30 μL/sec) and simultaneously added to each well of the cell plate. The fluorescence was continuously monitored before, during and after sample addition for a total elapsed time of 100 seconds. Responses (increase in peak fluorescence) in each well following agonist addition were determined. The initial fluorescence reading from each well, prior to ligand stimulation, was used as a zero baseline value for the data from that well. The responses were expressed as % inhibition of the buffer control.
On the technique in general: A change in cytosolic calcium serves as a functional read-out for many receptors and channels.

For experiment [2], the target named is T1, human CRTH2. Kind of experiment: Human CRTH2 Receptor Binding Assay (whole cell, [3H]ramatroban). As to conditions: CHO-K1 cells expressing human CRTH2 and G-alpha16; 20 nM [3H]ramatroban; 1 hour, room temperature. The source says:
Human CRTH2 Receptor Binding Assay
A whole cell receptor binding assay using [^3H]ramatroban as the competing radioactive ligand was employed to evaluate the compound binding activity to human CRTH2. The radioactive ligand [^3H]ramatroban was synthesized according to Sugimoto et. al. (Eur. J. Pharmacol. 524, 30-37, 2005) to a specific activity of 42 Ci/mmol.
A cell line stably expressing human CRTH2 was established by transfecting CHO-K1 cells with two mammalian expression vectors that harbored human CRTH2 and G-alpha16 cDNAs, respectively, using FuGene® 6 transfection reagent (from Roche). Stable clones expressing CRTH2 were selected by staining each clone with BM16 (BD Pharmingen™ from BD Biosciences, a division of Becton, Dickinson and Company), which is a rat monoclonal antibody to human CRTH2. The cells were maintained as monolayer cultures in Ham's F-12 medium containing 10% fetal bovine serum, 100 units/mL penicillin, 100 μg/mL streptomycin, 2 mM glutamine, 0.5 mg/mL G418 (geneticin) for CRTH2, and 0.2 mg/mL hygromycin-B (for G-alpha 16). For whole cell receptor binding assay, the monolayer cells were rinsed once with PBS (phosphate buffered saline), dissociated using ethylenediaminetetraacetate (Versene™ EDTA from Lonza Inc.), and suspended in PBS containing 10 mM MgCl2 and 0.06% BSA (bovine serum albumin) at 1.5×10^6 cells/mL.
The binding reactions (0.2 mL) were performed in 96-well plates at room temperature in PBS containing 1.5×10^5 cells, 10 mM MgCl2, 0.06% BSA, 20 nM [^3H]ramatroban, and test compound at various concentrations. After 1 hour of binding reactions, the cells were harvested on GF™/B filter microplates (microtiter plates with embedded glass fiber from PerkinElmer, Inc.) and washed 5 times with PBS using a Filtermate™ Harvester (a cell harvester that harvests and washes cells from microplates from PerkinElmer, Inc.). The radioactivities bound to the cells were determined using a microplate scintillation counter (TopCount® NXT, from PerkinElmer, Inc.) after adding 50 μL of Microscint™ 20 scintillation fluid (from PerkinElmer, Inc.) to each well of the filter plates. The radioactivity from non-specific binding was determined by replacing compound with 10 μM of 15(R)-15-methyl PGD2 (from Cayman Chemical Company) in the reaction mixtures. The radioactivity bound to the cells in the absence of compound (total binding) was determined by replacing compound with 0.25% of DMSO (dimethyl sulfoxide) in the reaction mixture. Specific binding data were obtained by subtracting the radioactivity of non-specific binding from each binding data.
The IC50 value is defined as the concentration of the tested compound that is required for 50% inhibition of total specific binding. In order to calculate the IC50 value, the percent inhibition data were determined for 7 concentrations for each compound. The percent inhibition for a compound at each concentration was calculated according to the following formula, [1-(specific binding in the presence of compound)/(total specific binding)]×100. The IC50 value was then obtained by fitting the percent inhibition data to a sigmoidal dose-response (4 parameter logistic) model in the XLfit® software Excel add-in program [from ID Business Solutions Ltd., model 205, where F(x)=(A+(B−A)/(1+((C/x)^D)))].

Experiment [3] concerns Th2 cells. Kind of experiment: DK-PGD2-Induced IL-13 Production Assay in Th2 Cells. The experiment is classed as cell-based. The conditions noted are these: human Th2 cells; 500 nM DK-PGD2; 4 hrs at 37° C.; IL-13 by ELISA. The procedure:
DK-PGD2-Induced IL-13 Production Assay in Th2 Cells
Cultures of Th2 cells were established from blood of healthy human volunteers according to the following procedure. Peripheral blood mononuclear cells (PBMC) were first isolated from 50 mL of fresh blood by Ficoll-Hypaque density gradient centrifugation, followed by CD4^+ cell purification using a CD4^+ T Cell Isolation Kit II (from Miltenyi Biotec Inc.). The CD4^+ T cells were then differentiated to Th2 cells by culturing the cells in X-VIVO 15® medium (from Cambrex BioScience Walkersville Inc.) containing 10% human AB serum (serum of blood type AB from Invitrogen Corporation), 50 U/mL of recombinant human interleukin-2 (rhIL-2) (from PeproTech Inc.) and 100 ng/mL of recombinant human interleukin-4 (rhIL-4) (from PeproTech Inc.) for 7 days. […] In general, 70% to 80% of the Th2 cells used in the assay are CRTH2-positive when analyzed by fluorescence-activated cell sorting using the BM16 antibody (as previously described) conjugated to Alexa Fluor 647.
The spontaneous production of IL-13 by Th2 cells was determined in the absence of DK-PGD2 stimulation and the value was subtracted from that in the presence of each compound for percent inhibition and IC50 calculations. […]
(In general: ELISA stands for enzyme-linked immunosorbent assay.)

SMILES strings stand for the structures.

Our source for the IC50 values is patent US9000044B2, “Substituted naphthylacetic acids” (Hoffmann-La Roche Inc., priority 2012, dated 2015).

T1 sequence (Q9Y5Y4 whole entry): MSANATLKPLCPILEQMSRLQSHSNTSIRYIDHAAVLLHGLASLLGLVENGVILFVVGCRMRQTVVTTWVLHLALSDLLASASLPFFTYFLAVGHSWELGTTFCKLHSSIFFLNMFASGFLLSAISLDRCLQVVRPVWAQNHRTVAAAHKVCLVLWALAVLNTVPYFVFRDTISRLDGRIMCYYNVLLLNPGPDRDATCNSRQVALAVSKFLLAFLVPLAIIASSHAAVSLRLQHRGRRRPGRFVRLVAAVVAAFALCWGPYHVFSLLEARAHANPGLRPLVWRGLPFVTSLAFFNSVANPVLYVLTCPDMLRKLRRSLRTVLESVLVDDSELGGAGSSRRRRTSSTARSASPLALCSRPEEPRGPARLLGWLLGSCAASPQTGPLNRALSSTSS

Usually IC50 stands for the concentration needed to halve the response being measured. As to `Cc1c(CC(=O)O)cc2ccc(F)cc2c1-c1ccc(NS(=O)(=O)c2cc(C(F)(F)F)cc(C(F)(F)F)c2)cc1` [Example 60, {4-[4-(3,5-Bis-trifluoromethyl-benzenesulfonylamino)-phenyl]-6-fluoro-3-methyl-naphthalen-2-yl}-acetic acid], the half-maximal inhibitory concentration (IC50) in experiment [1] turned out to be 0.1 nM; in experiment [2], 5.6 nM.

For the compound `Cc1ccccc1S(=O)(=O)c1ccc(-c2c(C)c(CC(=O)O)cc3ccc(F)cc23)cc1` [Example 1, {6-Fluoro-3-methyl-4-[4-(toluene-2-sulfonyl)-phenyl]-naphthalen-2-yl}-acetic acid], the IC50 in experiment [1] was determined as 0.3 nM; in experiment [2], 2.9 nM.

On to `Cc1c(CC(=O)O)cc2ccc(Cl)cc2c1-c1ccc(S(=O)(=O)N2CCCC2)cc1` [Example 33, {6-Chloro-3-methyl-4-[4-(pyrrolidine-1-sulfonyl)-phenyl]-naphthalen-2-yl}-acetic acid], for which the half-inhibitory concentration (IC50) is 0.8 nM in experiment [1] and 8 nM in experiment [3].

As to `Cc1c(CC(=O)O)cc2ccc(F)cc2c1-c1ccc(S(C)(=O)=O)cc1` [Example 54, [6-Fluoro-4-(4-methansulfonyl-phenyl)-3-methyl-naphthalen-2-yl]-acetic acid], the IC50 in experiment [1] is 25 nM; in experiment [2] it was 40 nM.

As for `Cc1c(CC(=O)O)cc2ccc(F)cc2c1-c1ccc(S(C)(=O)=O)cn1` [Example 58, [6-Fluoro-4-(5-methanesulfonyl-pyridin-2-yl)-3-methyl-naphthalen-2-yl]-acetic acid], the results for the IC50 in experiment [1] and in experiment [2] were 1120 nM and 139 nM, respectively.
